Measured values from PMC12254823 (Acta Pharmaceutica Sinica. B, 2025).

System: A/WSN/33(H1N1) virus
Assay: microbe, parasite or virus in culture
Type: cell-based, influenza A virus
Details: Influenza A virus, H1N1|WSN, MDCK, read-out: %-inhibition in viral yield reduction assay screening

Row | SMILES | inhibition at 100 µM [%]
1 | O=C(/C=C/c1ccc(F)c(F)c1)NCc1cccc2cn[nH]c12 [Compound 15, (E)-N-[(1H-Indazol-7-yl)methyl]-3-(3,4-difluorophenyl)acrylamide] | 44.1
2 | O=C(CN1CCOCC1)Nc1ccccc1C(=O)NCc1cccc2cn[nH]c12 [Compound 8, N-[(1H-Indazol-7-yl)methyl]-2-(2-morpholinoacetamido)benzamide] | < 2
3 | S=C(NCc1cccc2cn[nH]c12)Nc1cccc(Cl)c1 [Compound 21, 1-[(1H-Indazol-7-yl)methyl]-3-(3-chlorophenyl)thiourea] | 37.5
4 | O=C(/C=C/c1cccs1)NCc1cccc2cn[nH]c12 [Compound 18, (E)-N-[(1H-Indazol-7-yl)methyl]-3-(thiophen-2-yl)acrylamide] | < 2
5 | O=C(CN1CCSCC1)Nc1ccccc1C(=O)NCc1cccc2cn[nH]c12 [Compound 5, N-[(1H-Indazol-7-yl)methyl]-2-[2-(thiomorpholin-4-yl)acetamido]benzamide] | < 2
6 | Cc1cccc(NCC(=O)Nc2ccccc2C(=O)NCc2cccc3cn[nH]c23)c1 [Compound 3, N-[(1H-Indazol-7-yl)methyl]-2-[2-(m-tolylamino)acetamido]benzamide] | 18.6
7 | O=C(/C=C/c1ccc(C(F)(F)F)cc1)NCc1cccc2cn[nH]c12 [Compound 11, (E)-N-[(1H-Indazol-7-yl)methyl]-3-[4-(trifluoromethyl)phenyl]acrylamide] | < 2
8 | S=C(NCc1cccc2cn[nH]c12)Nc1ccc(Cl)cc1 [Compound 22, 1-[(1H-Indazol-7-yl)methyl]-3-(4-chlorophenyl)thiourea] | 16.9
9 | S=C(NCc1cccc2cn[nH]c12)Nc1ccccc1 [Compound 19, 1-[(1H-Indazol-7-yl)methyl]-3-phenylthiourea] | 25
10 | O=C(/C=C/c1ccc(F)cc1)NCc1cccc2cn[nH]c12 [Compound 13, (E)-N-[(1H-Indazol-7-yl)methyl]-3-(4-fluorophenyl)acrylamide] | 30.5
11 | Cc1ccccc1NCC(=O)Nc1ccccc1C(=O)NCc1cccc2cn[nH]c12 [Compound 1, N-[(1H-Indazol-7-yl)methyl]-2-[2-(o-tolylamino)acetamido]benzamide] | 25
12 | O=C(/C=C/c1ccncc1)NCc1cccc2cn[nH]c12 [Compound 16, (E)-N-[(1H-Indazol-7-yl)methyl]-3-(pyridin-4-yl)acrylamide] | 48.2
13 | S=C(NCc1cccc2cn[nH]c12)Nc1ccc(I)cc1 [Compound 25, 1-[(1H-Indazol-7-yl)methyl]-3-(4-iodophenyl)thiourea] | 74.4
14 | O=C(/C=C/c1ccc(Cl)cc1)NCc1cccc2cn[nH]c12 [Compound 10, (E)-N-[(1H-Indazol-7-yl)methyl]-3-(4-chlorophenyl)acrylamide] | < 2
15 | O=C(/C=C/c1ccc([N+](=O)[O-])cc1)NCc1cccc2cn[nH]c12 [Compound 12, (E)-N-[(1H-Indazol-7-yl)methyl]-3-(4-nitrophenyl)acrylamide] | 37.3

Same assay, conditions: read-out: EC50 viral yield assay

Row | SMILES | EC50 [µM]
16 | COC(=O)OCOc1c2n(ccc1=O)N([C@@H]1c3ccccc3SCc3c1ccc(F)c3F)[C@@H]1COCCN1C2=O [baloxavir marboxil, reference compound] | 0.00095
17 | NC(=O)c1nc(F)c[nH]c1=O [favipiravir, reference compound] | 1.57

Target: H1 polymerase (Influenza A virus, UniProt P15659)
Assay: cell-based
Set-up: species or system A/WSN/33(H1N1)
Details: EC50 minigenome luciferase reporter assay

Row | SMILES | EC50 [µM]
18 | NC(=O)c1nc(F)c[nH]c1=O [favipiravir, reference compound] | 0.441

System: not listed separately
Assay: in vitro
Details: dog

Row | SMILES | CC50 [µM]
19 | O=C(/C=C/c1ccc(F)c(F)c1)NCc1cccc2cn[nH]c12 [Compound 15, (E)-N-[(1H-Indazol-7-yl)methyl]-3-(3,4-difluorophenyl)acrylamide] | > 100
20 | O=C(CN1CCOCC1)Nc1ccccc1C(=O)NCc1cccc2cn[nH]c12 [Compound 8, N-[(1H-Indazol-7-yl)methyl]-2-(2-morpholinoacetamido)benzamide] | > 100
21 | S=C(NCc1cccc2cn[nH]c12)Nc1cccc(Cl)c1 [Compound 21, 1-[(1H-Indazol-7-yl)methyl]-3-(3-chlorophenyl)thiourea] | > 25
22 | O=C(/C=C/c1cccs1)NCc1cccc2cn[nH]c12 [Compound 18, (E)-N-[(1H-Indazol-7-yl)methyl]-3-(thiophen-2-yl)acrylamide] | > 100
23 | O=C(CN1CCSCC1)Nc1ccccc1C(=O)NCc1cccc2cn[nH]c12 [Compound 5, N-[(1H-Indazol-7-yl)methyl]-2-[2-(thiomorpholin-4-yl)acetamido]benzamide] | > 100
24 | Cc1cccc(NCC(=O)Nc2ccccc2C(=O)NCc2cccc3cn[nH]c23)c1 [Compound 3, N-[(1H-Indazol-7-yl)methyl]-2-[2-(m-tolylamino)acetamido]benzamide] | > 100
25 | O=C(/C=C/c1ccc(C(F)(F)F)cc1)NCc1cccc2cn[nH]c12 [Compound 11, (E)-N-[(1H-Indazol-7-yl)methyl]-3-[4-(trifluoromethyl)phenyl]acrylamide] | > 100
26 | S=C(NCc1cccc2cn[nH]c12)Nc1ccc(Cl)cc1 [Compound 22, 1-[(1H-Indazol-7-yl)methyl]-3-(4-chlorophenyl)thiourea] | > 100
27 | S=C(NCc1cccc2cn[nH]c12)Nc1ccccc1 [Compound 19, 1-[(1H-Indazol-7-yl)methyl]-3-phenylthiourea] | > 100
28 | O=C(/C=C/c1ccc(F)cc1)NCc1cccc2cn[nH]c12 [Compound 13, (E)-N-[(1H-Indazol-7-yl)methyl]-3-(4-fluorophenyl)acrylamide] | > 100
29 | Cc1ccccc1NCC(=O)Nc1ccccc1C(=O)NCc1cccc2cn[nH]c12 [Compound 1, N-[(1H-Indazol-7-yl)methyl]-2-[2-(o-tolylamino)acetamido]benzamide] | > 100
30 | O=C(/C=C/c1ccncc1)NCc1cccc2cn[nH]c12 [Compound 16, (E)-N-[(1H-Indazol-7-yl)methyl]-3-(pyridin-4-yl)acrylamide] | > 100
31 | S=C(NCc1cccc2cn[nH]c12)Nc1ccc(I)cc1 [Compound 25, 1-[(1H-Indazol-7-yl)methyl]-3-(4-iodophenyl)thiourea] | > 100
32 | O=C(/C=C/c1ccc(Cl)cc1)NCc1cccc2cn[nH]c12 [Compound 10, (E)-N-[(1H-Indazol-7-yl)methyl]-3-(4-chlorophenyl)acrylamide] | > 100
33 | O=C(/C=C/c1ccc([N+](=O)[O-])cc1)NCc1cccc2cn[nH]c12 [Compound 12, (E)-N-[(1H-Indazol-7-yl)methyl]-3-(4-nitrophenyl)acrylamide] | > 100
